Each molecule was assayed on CC[N+](CC)(CC)CC (assay: cells, lysate or membranes named).

Row | Molecule | Km [µM]
1 | Solute carrier family 22 member 1 (Rattus norvegicus) (protein) MPTVDDVLEQVGEFGWFQKQAFLLLCLISASLAPIYVGIVFLGFTPGHYCQNPGVAELSQRCGWSQAEELNYTVPGLGPSDEASFLSQCMRYEVDWNQSTLDCVDPLSSLVANRSQLPLGPCEHGWVYDTPGSSIVTEFNLVCGDAWKVDLFQSCVNLGFFLGSLVVGYIADRFGRKLCLLVTTLVTSVSGVLTAVAPDYTSMLLFRLLQGMVSKGSWVSGYTLITEFVGSGYRRTTAILYQMAFTVGLVGLAGVAYAIPDWRWLQLAVSLPTFLFLLYYWFVPESPRWLLSQKRTTRAVRIMEQIAQKNGKVPPADLKMLCLEEDASEKRSPSFADLFRTPNLRKHTVILMYLWFSCAVLYQGLIMHVGATGANLYLDFFYSSLVEFPAAFIILVTIDRIGRIYPIAASNLVTGAACLLMIFIPHELHWLNVTLACLGRMGATIVLQMVCLVNAELYPTFIRNLGMMVCSALCDLGGIFTPFMVFRLMEVWQALPLILFGVLGLTAGAMTLLLPETKGVALPETIEEAENLGRRKSKAKENTIYLQVQTGKSSST | 95

Each molecule was assayed against T1, Solute carrier family 22 member 1 (Rattus norvegicus, UniProt Q63089) (assay: TP_TRANSPORTER: inhibition of TEA uptake in Xenopus laevis oocytes).
T1 sequence (Q63089 whole entry): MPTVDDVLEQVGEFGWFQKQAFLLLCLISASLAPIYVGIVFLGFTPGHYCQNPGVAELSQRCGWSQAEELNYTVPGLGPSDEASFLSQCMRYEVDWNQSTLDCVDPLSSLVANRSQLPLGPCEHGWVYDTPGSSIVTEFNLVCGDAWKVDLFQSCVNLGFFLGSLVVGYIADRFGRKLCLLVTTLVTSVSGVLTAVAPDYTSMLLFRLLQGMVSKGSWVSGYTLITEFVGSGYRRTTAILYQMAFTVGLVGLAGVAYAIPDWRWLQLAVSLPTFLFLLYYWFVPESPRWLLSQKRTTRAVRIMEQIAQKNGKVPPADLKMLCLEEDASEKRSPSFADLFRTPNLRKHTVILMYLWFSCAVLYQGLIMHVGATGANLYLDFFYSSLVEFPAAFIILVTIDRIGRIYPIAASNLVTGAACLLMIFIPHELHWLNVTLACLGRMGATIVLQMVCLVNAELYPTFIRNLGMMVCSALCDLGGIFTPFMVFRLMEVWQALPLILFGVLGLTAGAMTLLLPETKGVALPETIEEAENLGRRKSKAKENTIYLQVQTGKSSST
Assay type: functional, cell-based, Oocyte

Row | Molecule | Ki [µM]
2 | C[C@]12C[C@H](O)[C@H]3[C@@H](CCC4=CC(=O)CC[C@@]43C)[C@@H]1CC[C@@H]2C(=O)CO [CORTICOSTERONE] | > 10
3 | CC[n+]1c(CC2C=C(C)N=C(c3ccccc3)N2C)ccc2ccccc21 (stereo unspecified) [Cyanine-863] | 0.13
4 | COc1cc(C(O)CNC(C)C)ccc1O (stereo unspecified) [METIPRENALINE] | 43
5 | CNC(=O)c1cccnc1 [NICOTINYL METHYLAMIDE] | 1000
6 | COC(=O)[C@H]1[C@H]2C[C@@H]3c4[nH]c5cc(OC)ccc5c4CCN3C[C@H]2C[C@@H](OC(=O)c2cc(OC)c(OC)c(OC)c2)[C@@H]1OC [RESERPINE] | > 20

Reference: ChEMBL document CHEMBL2074281, “Drug excretion mediated by a new prototype of polyspecific transporter” (Nature, 1994)
